One compound from patent publication US11247973B2 (The University of Durham, priority 2016, dated 2022) can be followed below.

The structures appear in SMILES notation. Like-named read-outs stand apart in the source and are kept apart here.

Data set [1] relates to RSV. Kind of data set: Plaque reduction assay in Vero cells (standard and time of addition). The following applies: human respiratory syncytial virus. The format is cell-based.
Data set [2] in a line: MTT cell toxicity assay. It counts as cell-based. The following applies: African green monkey, Vero cells. The method, then: Vero cells were seeded in 96-well plates in a volume of 100 μL Optimem media supplemented with 1% FBS at a concentration of 1×10^4 cells per well. After an overnight incubation at 37° C. in a humidified 5% CO2 atmosphere, the monolayer of cells should be approximately 90% confluent. Compound 2 was titrated in pre-warmed Serum Free (SF) Optimem in a U-bottom 96 well plate. For compounds in a DMSO solution, titration in 100% DMSO was performed first and each concentration added individually to a 2× final concentration at 4% DMSO. Media was then removed from cells and replaced with titrated compounds (100 μl/well). Cells were incubated at 37° C. in a humidified 5% CO2 atmosphere for 48 hours.
The MTT solution on Optimem (4 mg/ml) was prepared and 2 ul added to each well before it was incubated for 2 hours at 37° C. in a humidified 5% CO2 atmosphere. Media was then removed from the cells and DMSO added (50 ul/well). Plates were placed on a shaker prior to reading in a Spectromax at 570 nm. Data was normalised relative to untreated controls (1% DMSO only) and CC50 values determined using non-linear regression analysis with Graphpad Prism software.

Consider `O=C(CNc1c(F)c(F)nc(F)c1F)N[C@H]1N=C(c2ccccc2)c2ccccc2NC1=O` [Compound 2], for which the IC50 in data set [1] (compound added during infection only, read-out: Plaque IC50 (during infection only)) came to 10.9 µM; in data set [1] (compound added post infection only, read-out: Plaque IC50 (post infection only)), 2 µM; in data set [1] (standard plaque reduction assay, read-out: Plaque IC50) it was 1.1 µM. Besides, the CC50 at 48 h in data set [2] worked out at 63 µM.
